Assay results reported in patent publication US11879895B2, “Intercellular proximity labeling using eGRASP” (Seoul National University R&DB Foundation, priority 2018, dated 2024).

Tests used:
DG = assay: Validation of the Fos-rtTA system with seizures; format: in vivo, mice; conditions: injection of seizure inducer, doxycycline 2 hours before
Experimental: FIGS. 8a to 8c show the results of validation experiments of the Fos-rtTA system with seizures. FIG. 8a is a schematic illustration of the injected AAV, in which the nuclear target mEmerald (mEmerald-Nuc) was regulated by the TRE3G promoter that were regulated by rtTA3G expressed by the Fos promoter, and the nuclear target mCherry regulated by CaMKIIα was used for an expression control.
Doxycycline was injected 2 hours before seizure induction or contextual fear conditioning (CFC) to successfully label activated cells during each event (FIGS. 8A to 8C and FIGS. 9A to 9D). FIGS. 8a to 8c show the results of validation experiments of the Fos-rtTA system with seizures. FIG. 8a is a schematic illustration of the injected AAV, in which the nuclear target mEmerald (mEmerald-Nuc) was regulated by the TRE3G promoter regulated by rtTA3G expressed by the Fos promoter, and the nuclear target mCherry regulated by CaMKIIα was used as an expression control. […] FIGS. 9a to 9d show the results of the verification experiment of the Fos-rtTA system using CFC. […] FIG. 9b is a diagram showing a timetable of actions used in the experiment.

HEK293T cells = assay: GRASP signal at the interface of separately nucleofected HEK293T cells; format: cell-based, human; conditions: pre- and post-constructs transduced into separate HEK293T cells through nucleofection
From the text: According to still another embodiment of the present disclosure, the first labeling material or the second labeling material may further comprise a first binding-enhancing site or a second binding-enhancing site, respectively. Specifically, when the first labeling material and the second labeling material are located in close proximity, the first labeling material and the second labeling material are bound to each other to generate a signal. In order to assist the binding, the first labeling material and the second labeling material may further comprise a first binding-enhancing site and a second binding-enhancing site, respectively. The first binding-enhancing site and the second binding-enhancing site may form a binding with each other. Therefore, when the first labeling material and the second labeling material are adjacent to each other, the first binding-enhancing site and the second binding-enhancing site are bound to assist the binding of the first labeling material and the second labeling material.
The upper figure of FIG. 5a is a result when either post-mGRASP or mCherry-binding pre-mGRASP co-expressing mTagBFP2 was transduced into HEK293T cells through nucleofection. […] Peptide p40 (APTYSPPPPP) was bound to a SH3 domain in the post-eGRASP structure to enhance GRASP signals. […]

Abl SH3 peptide = target: T1, Abl SH3 peptide (Homo sapiens, UniProt P00519); assay: Binding of Abl SH3 binding peptide to Abl SH3 peptide of post-eGRASP; conditions: p32 compared with p30
T1 construct: IgG kappa signal peptide (N)
Experimental: (3) Abl SH3 binding peptide contained in Pre-eGRASP had p30 (APTKPPPLPP) or p32 (SPSYSPPPPP) sequence. p32 was bound more strongly to Abl SH3 peptide of post-eGRASP than p30. Therefore, in this example, a cyan pre-eGRASP designed to be continuously expressed was prepared using p30, and in this example, yellow pre-eGRASP designed to start to be expressed from a specific time point when memory starts to be formed was prepared using p32, thereby matching the balance of cyan fluorescence and yellow fluorescence.

T1 sequence (P00519 with tags, fused parts or gaps): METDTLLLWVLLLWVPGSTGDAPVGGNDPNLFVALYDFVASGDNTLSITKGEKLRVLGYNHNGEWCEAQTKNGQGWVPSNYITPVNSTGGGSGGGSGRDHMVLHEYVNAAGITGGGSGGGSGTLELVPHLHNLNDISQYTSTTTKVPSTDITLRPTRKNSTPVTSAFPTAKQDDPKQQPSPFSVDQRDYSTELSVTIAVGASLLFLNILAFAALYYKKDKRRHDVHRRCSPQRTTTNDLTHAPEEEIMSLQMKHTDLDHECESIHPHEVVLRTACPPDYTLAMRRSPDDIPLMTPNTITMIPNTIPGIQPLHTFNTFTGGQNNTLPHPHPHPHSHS

## C1CCc2nnnn2CC1 [Pentylenetetrazol]
DG
  mEmerald-Nuc signal in DG: strong mEmerald-Nuc signal

## S72A: Additional S72A mutation in strands 1-10 of the split GFP; SEQ ID NO: 2
HEK293T cells
  GRASP signal at the interface between cells: GRASP signal increases

## SPSYSPPPPP ((synthetic) p32)
Abl SH3 peptide
  binding to Abl SH3 peptide, relative: more strongly
